Measured values from ChEMBL document CHEMBL5370659 (J Med Chem, 2023).
Active and inactive are the calls of the source. No cut-off for these calls is given here.

Tests used:
[1] = Oral bioavailability in Sprague-Dawley rat at 50 mg/kg measured upto 1440 mins by LC-MS/MS analysis; assay type: ADME, organism-based; conditions: in vivo
[2] = tested on: Mus musculus; assay: Effect on total travelled distance of C57BL/6N mouse at 20 mg/kg, po treated for 14 days by locomotor activity test; assay type: functional, organism-based; conditions: time 14.0 day
[3] = Plasma protein binding in human; assay type: ADME, cell-free; conditions: read-out: PPB (converted)
[4] = Toxicity in C57BL/6N mouse subcutaneously transplanted with mouse MC-38 cells assessed as general toxic effects at 50 mg/kg, po bid measured on day 20; assay type: organism-based; conditions: in vivo, sc, 480 h, time 20 day
[5] = Volume of distribution at steady state in Sprague-Dawley rat at 10 mg/kg, iv measured upto 1440 mins by LC-MS/MS analysis; assay type: ADME, organism-based; conditions: in vivo, read-out: Vdss
[6] = tested on: Mus musculus; assay: Effect on C57BL/6N mouse assessed as brain serotonin turnover measuring 5-HT/TRP ratio at 1.5 to 50 mg/kg, po bid treated for 6 to 7 days; assay type: functional, organism-based; conditions: dose 1.5-50 mg/kg, time 6-7 day
[7] = biological target: Cytochrome P450 2C9 (Homo sapiens, UniProt P11712); assay: Inhibition of CYP2C9 in human liver microsome using diclofenac as substrate measured upto 50 uM incubated for 10 mins followed by NADPH addition incubated for 10 mins by LC/MS/MS analysis; assay type: ADME; conditions: microsomes, 20 min
[8] = Tlast in CD-1 (ICR) mouse at 50 mg/kg, po measured upto 1440 mins by LC-MS/MS analysis; assay type: ADME, organism-based; conditions: in vivo, 24 h
[9] = Apparent permeability across basal to apical side in human Caco-2 cells at pH 6.5/7.4 measured at 5 uM by LC-MS/MS analysis; assay type: ADME, cell-based; conditions: Caco-2, pH 6.5
[10] = AUCExtra in Sprague-Dawley rat at 50 mg/kg, po measured upto 1440 mins by LC-MS/MS analysis; assay type: ADME, organism-based; conditions: in vivo, 24 h
[11] = biological target: ATP-dependent translocase ABCB1 (Homo sapiens, UniProt P08183); assay: Inhibition of P-gp in human Caco-2 cells seeded in polyethylene membranes assessed as permeation in presence or absence of digoxin measured for 2 hrs by LC-MS/MS analysis based transporter assay; assay type: cell-based
[12] = biological target: Voltage-gated inwardly rectifying potassium channel KCNH2 (Homo sapiens, UniProt Q12809); assay: Inhibition of hERG channel expressed in CHO cells by whole-cell patch clamp assay; assay type: toxicity, cell-based
[13] = Plasma concentration in CD-1 (ICR) mouse at 50 mg/kg measured 2 hrs by LC-MS/MS analysis; assay type: ADME, organism-based
[14] = tested on: MC-38; assay: Antitumor activity against mouse MC-38 cells subcutaneously transplanted in C57BL/6N mouse assessed as reduction in absolute tumor volume at 50 mg/kg, po bid measured on day 20 relative to control; assay type: functional; conditions: MC-38, 480 h, route sc, time 20 day
[15] = tested on: Mus musculus; assay: Effect on hedonic component behavior in C57BL/6N mouse at 10 mg/kg, po treated for 14 days by sucrose preference test; assay type: functional, organism-based; conditions: time 14.0 day
[16] = MRT (0 to last) in Sprague-Dawley rat at 20 mg/kg, po measured upto 1440 mins by LC-MS/MS analysis; assay type: ADME, organism-based; conditions: in vivo
[17] = MRT (0 to infinitive) in Sprague-Dawley rat at 20 mg/kg, po measured upto 1440 mins by LC-MS/MS analysis; assay type: ADME, organism-based; conditions: in vivo
[18] = MRT (0 to last) in Sprague-Dawley rat at 10 mg/kg, iv measured upto 1440 mins by LC-MS/MS analysis; assay type: ADME, organism-based; conditions: in vivo
[19] = Drug uptake in Sprague-Dawley rat brain at 20 mg/kg, po measured at 0.5 hrs by LC-MS/MS analysis; assay type: ADME, organism-based; conditions: in vivo, BLD = below limit of detection

Chain of Cytochrome P450 2C9 (P11712 whole entry): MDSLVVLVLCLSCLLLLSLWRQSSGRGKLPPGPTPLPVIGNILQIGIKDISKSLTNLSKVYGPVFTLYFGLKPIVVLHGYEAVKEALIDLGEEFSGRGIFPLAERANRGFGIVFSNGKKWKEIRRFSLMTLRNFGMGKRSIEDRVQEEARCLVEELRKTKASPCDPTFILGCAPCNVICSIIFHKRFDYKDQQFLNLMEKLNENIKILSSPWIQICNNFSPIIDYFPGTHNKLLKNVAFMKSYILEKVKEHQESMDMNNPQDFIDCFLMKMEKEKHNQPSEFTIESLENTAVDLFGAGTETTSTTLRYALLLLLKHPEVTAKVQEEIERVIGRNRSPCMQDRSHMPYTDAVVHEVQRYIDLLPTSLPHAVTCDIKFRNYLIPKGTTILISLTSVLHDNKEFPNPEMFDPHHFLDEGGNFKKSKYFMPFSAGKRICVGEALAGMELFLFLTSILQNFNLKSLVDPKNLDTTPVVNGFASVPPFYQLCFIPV
Chain of Voltage-gated inwardly rectifying potassium channel KCNH2 (Q12809 whole entry): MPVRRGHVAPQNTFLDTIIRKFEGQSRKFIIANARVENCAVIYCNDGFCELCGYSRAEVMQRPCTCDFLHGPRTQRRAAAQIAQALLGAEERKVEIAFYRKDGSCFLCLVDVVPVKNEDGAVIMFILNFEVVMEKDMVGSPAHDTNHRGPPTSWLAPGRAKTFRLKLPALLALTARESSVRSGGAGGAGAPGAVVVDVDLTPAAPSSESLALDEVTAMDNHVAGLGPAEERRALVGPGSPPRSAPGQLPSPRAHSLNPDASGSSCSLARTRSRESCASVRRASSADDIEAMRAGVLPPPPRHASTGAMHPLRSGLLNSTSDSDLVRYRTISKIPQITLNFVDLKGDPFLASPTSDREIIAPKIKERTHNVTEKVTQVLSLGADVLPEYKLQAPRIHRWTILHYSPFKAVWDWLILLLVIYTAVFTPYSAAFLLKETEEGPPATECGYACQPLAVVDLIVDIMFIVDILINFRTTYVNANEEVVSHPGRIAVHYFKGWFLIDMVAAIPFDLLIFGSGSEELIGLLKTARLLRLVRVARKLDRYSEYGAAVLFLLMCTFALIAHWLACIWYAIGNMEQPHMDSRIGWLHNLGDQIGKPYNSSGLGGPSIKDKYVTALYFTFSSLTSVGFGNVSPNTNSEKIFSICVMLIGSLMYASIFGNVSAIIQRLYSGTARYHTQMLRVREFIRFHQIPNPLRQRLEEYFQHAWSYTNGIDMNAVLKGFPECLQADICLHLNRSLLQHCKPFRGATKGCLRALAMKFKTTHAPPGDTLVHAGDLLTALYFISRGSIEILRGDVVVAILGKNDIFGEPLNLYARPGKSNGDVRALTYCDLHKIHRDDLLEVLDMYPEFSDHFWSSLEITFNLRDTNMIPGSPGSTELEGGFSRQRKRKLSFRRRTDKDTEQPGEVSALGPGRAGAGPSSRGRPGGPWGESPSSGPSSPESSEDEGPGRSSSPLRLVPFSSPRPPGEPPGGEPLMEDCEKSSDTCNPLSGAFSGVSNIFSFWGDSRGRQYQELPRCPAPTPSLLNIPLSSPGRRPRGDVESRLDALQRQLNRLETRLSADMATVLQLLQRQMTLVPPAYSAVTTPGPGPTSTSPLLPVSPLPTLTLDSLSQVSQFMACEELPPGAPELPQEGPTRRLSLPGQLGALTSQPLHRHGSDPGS
Chain of ATP-dependent translocase ABCB1 (P08183 whole entry): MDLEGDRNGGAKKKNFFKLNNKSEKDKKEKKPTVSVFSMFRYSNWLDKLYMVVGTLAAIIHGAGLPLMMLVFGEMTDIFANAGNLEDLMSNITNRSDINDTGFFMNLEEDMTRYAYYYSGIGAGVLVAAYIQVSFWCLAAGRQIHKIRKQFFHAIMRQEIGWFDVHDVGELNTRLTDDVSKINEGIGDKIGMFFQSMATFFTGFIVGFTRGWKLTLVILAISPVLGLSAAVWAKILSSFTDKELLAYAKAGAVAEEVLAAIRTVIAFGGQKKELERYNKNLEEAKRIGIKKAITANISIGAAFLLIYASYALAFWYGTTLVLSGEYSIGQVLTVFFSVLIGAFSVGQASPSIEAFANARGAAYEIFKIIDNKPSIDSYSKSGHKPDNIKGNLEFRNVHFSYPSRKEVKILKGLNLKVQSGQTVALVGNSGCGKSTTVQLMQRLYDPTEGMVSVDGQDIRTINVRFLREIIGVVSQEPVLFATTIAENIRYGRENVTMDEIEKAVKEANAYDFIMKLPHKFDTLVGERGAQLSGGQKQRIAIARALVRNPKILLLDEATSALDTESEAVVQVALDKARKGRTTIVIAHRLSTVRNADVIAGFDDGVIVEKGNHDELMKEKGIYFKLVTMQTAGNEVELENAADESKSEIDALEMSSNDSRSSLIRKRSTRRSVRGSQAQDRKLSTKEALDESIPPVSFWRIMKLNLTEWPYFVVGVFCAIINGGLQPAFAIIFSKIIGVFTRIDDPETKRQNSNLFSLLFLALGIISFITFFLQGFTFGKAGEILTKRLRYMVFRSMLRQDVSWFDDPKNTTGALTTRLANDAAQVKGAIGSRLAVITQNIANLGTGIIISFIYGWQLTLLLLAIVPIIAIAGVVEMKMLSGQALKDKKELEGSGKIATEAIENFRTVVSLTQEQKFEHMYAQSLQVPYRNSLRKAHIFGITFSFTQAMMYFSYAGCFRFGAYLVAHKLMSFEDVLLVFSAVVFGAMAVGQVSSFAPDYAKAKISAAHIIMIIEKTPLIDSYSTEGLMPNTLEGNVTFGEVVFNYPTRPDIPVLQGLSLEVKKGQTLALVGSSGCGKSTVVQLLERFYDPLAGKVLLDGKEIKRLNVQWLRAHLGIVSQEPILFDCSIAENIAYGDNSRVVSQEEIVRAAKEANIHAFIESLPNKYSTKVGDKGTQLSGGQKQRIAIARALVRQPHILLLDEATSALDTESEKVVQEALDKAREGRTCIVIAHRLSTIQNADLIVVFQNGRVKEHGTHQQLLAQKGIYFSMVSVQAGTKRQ

bioavailability [1]: 32.7%
fraction unbound [3]: 0.49
Vd [5]: 1.4 L/kg
inhibition (INH) [7]: Not Active
Tlast [8]: 12 h
Papp B→A at 5 µM [9]: 23 ×10⁻⁶ cm/s
%AUCextra [10]: 0.44%
IC50 [11]: > 100 µM
concentration at 2 h [13]: 1610 ng/mL
MRT last at 24 h [16]: 2.91 h
MRT inf [17]: 3.14 h
MRT last at 24 h [18]: 0.61 h
Drug uptake [19]: Bld
SMILES: CCn1c(=O)[nH]c(=O)c2c1nc(Cc1cn3cc(C)sc3n1)n2CC1COC1
Activity [2]: inactive
Activity [4]: Non-Toxic
Activity [6]: inactive
IC50 [12]: > 30 µM
inhibition in vivo at 50 mg/kg [14]: 35%
Activity [15]: inactive
